Literature values as cited in patent US5493006A, “Cyclic CRF analogs” (The Salk Institute for Biological Studies, priority 1993, dated 1996).
Entries after “also recorded” stand apart in the source; their conditions may differ. Ends that are not written are not given here.

How the values were obtained:
[1] = system: secretion of ACTH and β-END-LI; settings: in vitro and in vivo; background statement
[2] = injected peripherally; background statement

rCRF: rat CRF, a homologous, amidated hentetracontapeptide; same formula as human CRF (SEEPPISLDLTFHLLREVLEMARAEQLAQQAHSNRKLMEII-NH2; UniProt P01143 145-185, looked up)
stimulation of ACTH and β-endorphin-like activities (β-END-Li) [1]: stimulate ACTH and β-endorphin-like activities (β-END-Li) in vitro and in vivo | lowering of blood pressure [2]: substantially lower blood pressure

oCRF: ovine corticotropin releasing factor, a 41-residue amidated peptide (SQEPPISLDLTFHLLREVLEMTKADQLAQQAHSNRKLLDIA-NH2; UniProt P01142 148-188, looked up)
stimulation of ACTH and β-endorphin-like activities (β-END-Li) [1]: stimulates the secretion of ACTH and β-endorphin; also recorded: stimulate ACTH and β-endorphin-like activities (β-END-Li) in vitro and in vivo | lowering of blood pressure [2]: lowers blood pressure; also recorded: substantially lower blood pressure
